{
  "source": "patent US6602882B1",
  "about": "“Quinoline derivatives and their use as antibacterial agents” (SmithKline Beecham p.l.c., priority 1998, dated 2003)",
  "type_in_all_cases": "cell-based",
  "key": {"[1]": {"system": "S. aureus Oxford", "experiment": "MIC against S. aureus Oxford", "procedure": "(§1) The MIC (μg/ml) of compounds 1, 3 and 4 against various organisms was determined."}, "[2]": {"system": "S. aureus WCUH29", "experiment": "MIC against S. aureus WCUH29", "procedure": "as §1"}, "[3]": {"system": "E. faecalis I", "experiment": "MIC against E. faecalis I", "procedure": "as §1"}, "[4]": {"system": "M. catarrhalis Ravasio", "experiment": "MIC against M. catarrhalis Ravasio", "procedure": "as §1"}, "[5]": {"system": "S. aureus Carter 37", "experiment": "MIC against S. aureus Carter 37", "procedure": "as §1"}, "[6]": {"system": "S. pneumoniae R6", "experiment": "MIC against S. pneumoniae R6", "procedure": "as §1"}, "[7]": {"settings": "Staphylococcus aureus, read-out: MIC"}, "[8]": {"settings": "Staphylococcus aureus, CARTER37, read-out: MIC"}, "[9]": {"settings": "Streptococcus pneumoniae, read-out: MIC"}, "[10]": {"settings": "Enterococcus faecalis, read-out: MIC"}},
  "note": "Read-outs that look alike come from different tables or passages of the source.",
  "data": [
    {"smiles": "CCCCCCCN1CC[C@H](NC(=O)Nc2ccnc3ccc(OC)cc23)[C@H](CO)C1.O=C(O)C(=O)O", "note": "(relative stereo) [Example 5, N-(cis-1-Heptyl-3-(R/S)-hydroxymethyl-4-(S/R)-piperidyl)-N′-(6-methoxyquinolin-4-yl)urea oxalate]", "values": [
      {"measurement": "MIC", "setting": "[1]", "result": 1, "unit": "µg/mL"},
      {"measurement": "MIC", "setting": "[2]", "result": 1, "unit": "µg/mL"},
      {"measurement": "MIC", "setting": "[3]", "result": 4, "unit": "µg/mL"}
    ]},
    {"smiles": "CCCCCCCN1CC[C@H](NC(=O)Nc2ccnc3ccc(OC)nc23)[C@H](CO)C1.O=C(O)C(=O)O", "note": "(relative stereo) [Example 6, N-(cis-1-Heptyl-3-(R/S)-hydroxymethyl-4-(S/R)-piperidyl)-N′-(6-methoxy-[1,5]-naphthyridin-4-yl)urea Oxalate]", "values": [
      {"measurement": "MIC", "setting": "[1]", "result": 0.5, "unit": "µg/mL"},
      {"measurement": "MIC", "setting": "[2]", "result": 1, "unit": "µg/mL"},
      {"measurement": "MIC", "setting": "[3]", "result": 8, "unit": "µg/mL"}
    ]},
    {"smiles": "CCCCCC1CCC2CC(OC(=O)Nc3ccnc4ccc(OC)cc34)CCN2C1", "note": "(centres unmarked) [Example 1, 1-Aza-8-(ax)-[(6-methoxyquinolin-4-yl)-aminocarbonyloxy]-3-(ax)-n-pentyl-bicyclo[4,4,0]decane]", "values": [
      {"measurement": "MIC", "setting": "[1]", "result": 2, "unit": "µg/mL"},
      {"measurement": "MIC", "setting": "[2]", "result": 4, "unit": "µg/mL"},
      {"measurement": "MIC", "setting": "[4]", "result": 32, "unit": "µg/mL"},
      {"measurement": "MIC", "setting": "[5]", "result": 8, "unit": "µg/mL"},
      {"measurement": "MIC", "setting": "[6]", "result": 1, "unit": "µg/mL"},
      {"measurement": "MIC", "setting": "[3]", "result": 8, "unit": "µg/mL"}
    ]},
    {"smiles": "CCCCCCCN1CCC(OC(=O)Nc2ccnc3ccc(OC)cc23)CC1", "note": "[Example 3, 1-Heptyl-4-[N-(6-methoxyquinolin-4-yl)aminocarbonyloxy]piperidine]", "values": [
      {"measurement": "MIC", "setting": "[1]; [7]", "result": 8, "unit": "µg/mL"},
      {"measurement": "MIC", "setting": "[2]; [7]", "result": 4, "unit": "µg/mL"},
      {"measurement": "MIC", "setting": "[4]; Moraxella catarrhalis, read-out: MIC", "result": 16, "unit": "µg/mL"},
      {"measurement": "MIC", "setting": "[5]; [8]", "result": 8, "unit": "µg/mL"},
      {"measurement": "MIC", "setting": "[6]; [9]", "result": 4, "unit": "µg/mL"},
      {"measurement": "MIC", "setting": "[3]; [10]", "result": 8, "unit": "µg/mL"}
    ]},
    {"smiles": "CCCCCCCN1CCC(NC(=O)Nc2ccnc3ccc(OC)cc23)CC1", "note": "[Example 4, 1-Heptyl-4-(6-methoxyquinolin4-yl)ureidopiperidine]", "values": [
      {"measurement": "MIC", "setting": "[1]; [7]", "result": 16, "unit": "µg/mL"},
      {"measurement": "MIC", "setting": "[2]; [7]", "result": 8, "unit": "µg/mL"},
      {"measurement": "MIC", "setting": "[5]; [8]", "result": 16, "unit": "µg/mL"},
      {"measurement": "MIC", "setting": "[6]; [9]", "result": 2, "unit": "µg/mL"},
      {"measurement": "MIC", "setting": "[3]; [10]", "result": 8, "unit": "µg/mL"}
    ]},
    {"smiles": "CCCCCCCN1CCC(NC(=O)Nc2ccnc3ccc(OC)nc23)CC1.O=C(O)C(=O)O", "note": "[Example 7]", "values": [
      {"measurement": "MIC", "setting": "[1]", "result": 1, "unit": "µg/mL"},
      {"measurement": "MIC", "setting": "[2]", "result": 1, "unit": "µg/mL"},
      {"measurement": "MIC", "setting": "[3]", "result": 8, "unit": "µg/mL"}
    ]}
  ]
}
